From PMC12197678, “Cvill6 and Cvill7: Potent and Selective Peptide Blockers of Kv1.2 Ion Channel Isolated from Mexican Scorpion Centruroides villegasi” (Toxins, 2025)

Key:
Kv1.2 = conditions: ref [21],[22]; cited from earlier work
From the text: The Kv1.2 ion channel, a member of voltage-gated potassium channels, is encoded by the KCNA2 gene. Kv1.2 is predominantly expressed in the central nervous system (CNS) abundantly in the cerebellum, hippocampus, and cortex. It plays a crucial role in action potential propagation, neuronal excitability, and synaptic transmission. Gain-of-function (GOF) mutations in KCNA2 cause increased Kv1.2 activity, resulting in excessive potassium conductance leading to neuronal hyperpolarization, and impairing normal brain function. A decade ago, Kv1.2 emerged as a key factor ...

hKv1.5 = assay type: cell-based, human
Procedure: Chinese hamster ovary (CHO) cells (generously provided by Yosef Yarden, Weizmann Institute of Science, Rehovot, Israel) or human embryonic kidney (HEK293) cells were cultured and maintained in Dulbecco’s modified Eagle medium (DMEM, Thermo Fisher Scientific, Waltham, MA, USA) supplemented with 2 mM L-glutamine, 10% fetal bovine serum (FBS), 100 µg/mL streptomycin, and 100 U/mL penicillin-g (Sigma-Aldrich, Budapest, Hungary) following standard culturing conditions [52]. For transient expression of ion channels, CHO cells were transfected using the Lipofectamine 2000 kit (Invitrogen, Waltham, MA, USA) following the manufacturer’s instructions with plasmids encoding specific ion channels, including hKv1.1 (KCNA1 gene), hKv1.2 (KCNA2 gene), and hKv1.5 (KCNA5 gene) in a pCMV6-AC-GFP vector (OriGene Technologies), hKCa2.2 (KCNN2 gene) in a pCDN3 plasmid (for this transfection a GFP containing plasmid was co-transfected, courtesy of Bernard Attali, Tel Aviv University, Tel Aviv, Israel), and hKCa3.1 (KCNN4 gene) in a pEGFP-C1 vector (a kind gift by H. Wulff, University of California, Davis, CA, USA). […] Electrophysiological recordings were typically conducted 24 to 48 h after transfection. […]
Whole-cell currents were recorded using the patch-clamp technique in voltage-clamp mode, following standard protocols [73]. […]

hKv1.3 = biological target: T1, hKv1.3 (Homo sapiens, UniProt P22001); assay: cell-based; assay type: cell-based
T1 construct: peripheral blood mononuclear cells (PBMCs) were isolated from the healthy donor’s blood; endogenous in cells
T1 sequence (P22001 whole entry): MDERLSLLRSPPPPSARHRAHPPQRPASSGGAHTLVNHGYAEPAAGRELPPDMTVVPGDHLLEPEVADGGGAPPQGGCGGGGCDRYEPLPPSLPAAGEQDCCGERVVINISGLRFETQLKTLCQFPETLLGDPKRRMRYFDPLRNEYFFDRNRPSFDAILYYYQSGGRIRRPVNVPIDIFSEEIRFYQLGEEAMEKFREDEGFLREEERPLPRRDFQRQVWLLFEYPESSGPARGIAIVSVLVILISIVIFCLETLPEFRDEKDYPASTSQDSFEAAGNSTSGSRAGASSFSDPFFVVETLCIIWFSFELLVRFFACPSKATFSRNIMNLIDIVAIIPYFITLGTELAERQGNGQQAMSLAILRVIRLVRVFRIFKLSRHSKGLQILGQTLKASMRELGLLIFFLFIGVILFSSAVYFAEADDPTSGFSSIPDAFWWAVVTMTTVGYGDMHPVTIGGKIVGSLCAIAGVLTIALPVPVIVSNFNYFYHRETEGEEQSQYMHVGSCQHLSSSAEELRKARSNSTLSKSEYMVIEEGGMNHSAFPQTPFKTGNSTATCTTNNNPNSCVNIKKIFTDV
From the text: Therefore, we aimed to investigate the effects of Cvill6 and Cvill7 on voltage-gated K^+ ion channels. Among the tested ion channels there were four members from the Shaker-related human Kv1 family, hKv1.1, hKv1.2, hKv1.3, and hKv1.5 (Figure 3A–E), and one member of the human ether-a-go-go-related (hERG) cardiac K^+ channel hKv11.1 (hERG1, Figure 3F). For current recordings, Kv1.1, Kv1.2, and Kv1.5 were transiently expressed in CHO cells while for Kv11.1 a stable HEK293 cell line was used. To record Kv1.3 currents human peripheral T lymphocytes were activated with Phytohemagglutinin A (PHA) to boost Kv1.3 expression and Ca^2+-free intracellular solution to prevent the KCa3.1 channel opening. […] Appropriate voltage protocols were applied to record the K^+ currents from voltage-clamped cells in whole-cell configurations. Toxins were freshly dissolved in the bath solution supplemented with 0.1 mg/mL BSA and applied to the patched cells via a gravity-fed micro-perfusion system with an approximate flow rate of 200 µL/min.
To avoid toxin adsorption onto the plastic surfaces of the perfusion system, 0.1 mg/mL of bovine serum albumin (BSA, Sigma-Aldrich, Budapest, Hungary) was also added into all bath solutions prior to the patch-clamp assay.
Whole-cell currents were recorded using the patch-clamp technique in voltage-clamp mode, following standard protocols. […] Micropipettes were made from GC150F-7.5 borosilicate capillaries (Harvard Apparatus Co., Holliston, MA, USA) using a Sutter P2000 laser puller with tip resistance generally ranging from 3–6 MΩ in the bath solution. Only recordings with a leak current at the holding potential (Vh) of <10% of the peak current at the test potential were included in the data analysis. All recordings were performed at room temperature (20–25 °C). Control and test solutions were perfused to the cells via a gravity-driven micro-perfusion system and AutoMate Perfusion Pencil Multi-Barrel Manifold Tip (AutoMate Scientific, Berkeley, CA, USA), with an approximate flow rate of 200 µL/min, and the excess amount of bath solution was continuously removed from the recording chamber using vacuum suction.
The duration of depolarization pulses was 15 ms for Kv1.3 and 50 ms for Kv1.1 and Kv1.5. However, for Kv1.2, 15–500 ms-long pulses were used to achieve the saturated peak current due to the variable activation kinetics of this channel. […] KCa2.2 and KCa3.1 currents were recorded by applying 150 ms-long voltage ramps to +50 mV from −120 mV every 10 s; the Vh was set to −85 mV.
Before analysis, all current traces were digitally filtered using three-point boxcar smoothing and were corrected for ohmic leakage, only if required. […] Data points in the concentration–response curve represent the mean RCF values of three to six individual cells, with error bars denoting the standard error of the mean (SEM). The data points for each concentration were fitted using the Hill equation: RCF = IC50^H/(IC50^H + [toxin]^H), where IC50 is the dissociation constant, H represents the Hill coefficient, and [toxin] is the concentration of the toxin.
To study the binding kinetics of Cvill toxins, the peak current during the application of toxin at time point t (It) was normalized to the peak current (I0) before the toxin exposure (Inorm = It/I0) and plotted as a function of time.

hKv1.1 = biological target: T2, hKv1.1 (Homo sapiens, UniProt Q09470); assay: cell-based; assay type: cell-based
T2 construct: host or cells: CHO cells, transient transfection (Lipofectamine 2000)
T2 sequence (Q09470 whole entry): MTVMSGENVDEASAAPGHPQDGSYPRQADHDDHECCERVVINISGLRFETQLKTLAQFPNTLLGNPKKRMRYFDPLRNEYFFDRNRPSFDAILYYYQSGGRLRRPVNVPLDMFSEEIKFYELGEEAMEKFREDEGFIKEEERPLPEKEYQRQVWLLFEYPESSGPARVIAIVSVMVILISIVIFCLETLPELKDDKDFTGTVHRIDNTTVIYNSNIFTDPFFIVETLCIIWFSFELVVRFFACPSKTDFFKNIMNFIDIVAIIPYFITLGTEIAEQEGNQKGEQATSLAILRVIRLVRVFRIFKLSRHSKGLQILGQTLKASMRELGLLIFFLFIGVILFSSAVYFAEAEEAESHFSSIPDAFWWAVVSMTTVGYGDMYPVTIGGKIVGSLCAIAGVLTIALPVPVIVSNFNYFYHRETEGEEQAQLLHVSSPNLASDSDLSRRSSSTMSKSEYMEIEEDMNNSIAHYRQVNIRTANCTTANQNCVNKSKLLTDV
Procedure: (§1) Chinese hamster ovary (CHO) cells (generously provided by Yosef Yarden, Weizmann Institute of Science, Rehovot, Israel) or human embryonic kidney (HEK293) cells were cultured and maintained in Dulbecco’s modified Eagle medium (DMEM, Thermo Fisher Scientific, Waltham, MA, USA) supplemented with 2 mM L-glutamine, 10% fetal bovine serum (FBS), 100 µg/mL streptomycin, and 100 U/mL penicillin-g (Sigma-Aldrich, Budapest, Hungary) following standard culturing conditions [52]. For transient expression of ion channels, CHO cells were transfected using the Lipofectamine 2000 kit (Invitrogen, Waltham, MA, USA) following the manufacturer’s instructions with plasmids encoding specific ion channels, including hKv1.1 (KCNA1 gene), hKv1.2 (KCNA2 gene), and hKv1.5 (KCNA5 gene) in a pCMV6-AC-GFP vector (OriGene Technologies), hKCa2.2 (KCNN2 gene) in a pCDN3 plasmid (for this transfection a GFP containing plasmid was co-transfected, courtesy of Bernard Attali, Tel Aviv University, Tel Aviv, Israel), and hKCa3.1 (KCNN4 gene) in a pEGFP-C1 vector (a kind gift by H. Wulff, University of California, Davis, CA, USA). […] Electrophysiological recordings were typically conducted 24 to 48 h after transfection.
(§2) Whole-cell currents were recorded using the patch-clamp technique in voltage-clamp mode, following standard protocols [73]. […] Micropipettes were made from GC150F-7.5 borosilicate capillaries (Harvard Apparatus Co., Holliston, MA, USA) using a Sutter P2000 laser puller with tip resistance generally ranging from 3–6 MΩ in the bath solution. Only recordings with a leak current at the holding potential (Vh) of <10% of the peak current at the test potential were included in the data analysis. All recordings were performed at room temperature (20–25 °C). Control and test solutions were perfused to the cells via a gravity-driven micro-perfusion system and AutoMate Perfusion Pencil Multi-Barrel Manifold Tip (AutoMate Scientific, Berkeley, CA, USA), with an approximate flow rate of 200 µL/min, and the excess amount of bath solution was continuously removed from the recording chamber using vacuum suction.
(§3) The duration of depolarization pulses was 15 ms for Kv1.3 and 50 ms for Kv1.1 and Kv1.5. However, for Kv1.2, 15–500 ms-long pulses were used to achieve the saturated peak current due to the variable activation kinetics of this channel [74].

hKv1.2 = biological target: T3, hKv1.2 (Homo sapiens, UniProt P16389); assay: Whole-cell patch-clamp, hKv1.2 current in transiently transfected CHO cells; assay type: cell-based; conditions: positive control
T3 construct: host or cells: CHO cells, transient transfection (Lipofectamine 2000)
T3 sequence (P16389 whole entry): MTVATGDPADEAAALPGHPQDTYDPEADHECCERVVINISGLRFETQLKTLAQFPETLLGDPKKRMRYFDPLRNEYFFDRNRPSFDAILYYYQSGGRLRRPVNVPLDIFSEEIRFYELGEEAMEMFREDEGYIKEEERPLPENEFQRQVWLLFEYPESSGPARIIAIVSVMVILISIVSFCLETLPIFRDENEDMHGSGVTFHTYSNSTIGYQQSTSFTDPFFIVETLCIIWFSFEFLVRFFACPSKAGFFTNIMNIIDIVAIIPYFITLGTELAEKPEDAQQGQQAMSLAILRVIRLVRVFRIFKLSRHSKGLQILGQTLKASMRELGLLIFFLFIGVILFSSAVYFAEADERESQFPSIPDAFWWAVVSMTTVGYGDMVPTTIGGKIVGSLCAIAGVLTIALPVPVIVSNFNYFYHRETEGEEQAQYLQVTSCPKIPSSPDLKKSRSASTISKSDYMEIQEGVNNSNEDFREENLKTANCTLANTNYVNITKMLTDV
Procedure: as §1, §2, §3

Nc1ccncc1 [4-aminopyridine]
effect on gain-of-function defects in patients with KCNA2-related encephalopathy (Kv1.2): can mitigate the gain-of-function defects in patients

CC[N+](CC)(CC)CC [TEA^+, tetraethylammonium chloride, reference compound]
inhibition of Kv1.5 by positive control (hKv1.5): fully reversible inhibitors
inhibition of Kv1.3 by positive control (hKv1.3): fully reversible inhibitors
inhibition of Kv1.1 by positive control (hKv1.1): fully reversible inhibitors

charybdotoxin [reference compound]
inhibition of Kv1.2 by positive control (hKv1.2): fully reversible inhibitors
